Legend:
[1] = biological target: T1, Adenosine receptor A3 (Homo sapiens) (UniProt P0DMS8); assay: Displacement of [3H]NECA from human A3 receptor expressed in human HeLa cell membranes at 1 uM incubated for 180 mins by radioligand binding competition assay relative to control
T1 sequence (whole entry): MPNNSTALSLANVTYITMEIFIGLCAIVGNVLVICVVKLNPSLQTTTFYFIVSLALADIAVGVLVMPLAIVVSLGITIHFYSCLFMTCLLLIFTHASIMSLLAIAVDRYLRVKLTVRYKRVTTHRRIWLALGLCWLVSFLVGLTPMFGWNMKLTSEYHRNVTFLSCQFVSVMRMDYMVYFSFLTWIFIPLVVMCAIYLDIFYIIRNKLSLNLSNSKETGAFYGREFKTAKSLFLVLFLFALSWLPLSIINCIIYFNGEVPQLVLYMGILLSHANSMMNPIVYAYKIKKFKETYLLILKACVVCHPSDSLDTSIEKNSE

Adenosine receptor A2b = biological target: T2, Adenosine receptor A2b (Homo sapiens, UniProt P29275); assay: Displacement of [3H]DPCPX from human recombinant A2B receptor expressed in human HEK293 cell membranes incubated for 30 mins by radioligand binding competition assay
T2 sequence (P29275 whole entry): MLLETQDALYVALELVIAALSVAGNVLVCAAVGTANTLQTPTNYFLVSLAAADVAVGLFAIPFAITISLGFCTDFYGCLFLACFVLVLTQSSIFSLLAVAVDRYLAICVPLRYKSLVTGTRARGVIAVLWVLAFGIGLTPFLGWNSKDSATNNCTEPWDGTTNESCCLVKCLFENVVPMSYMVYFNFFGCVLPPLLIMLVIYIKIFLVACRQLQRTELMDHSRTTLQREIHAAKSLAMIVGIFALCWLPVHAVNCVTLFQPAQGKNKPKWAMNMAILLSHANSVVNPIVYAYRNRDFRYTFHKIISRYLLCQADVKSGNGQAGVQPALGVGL

Adenosine receptor A2a [2] = biological target: T3, Adenosine receptor A2a (Homo sapiens, UniProt P29274); assay: Displacement of [3H]ZM241385 from human recombinant A2A receptor expressed in human HeLa cell membranes at 1 uM incubated for 30 mins by radioligand binding competition assay relative to control
[3] = biological target: T4, Adenosine receptor A1 (Homo sapiens) (UniProt P30542); assay: Displacement of [3H]DPCPX from human recombinant A1 receptor expressed in CHOA1 cell membranes at 1 uM incubated for 60 mins by radioligand binding competition assay relative to control
T4 sequence (whole entry): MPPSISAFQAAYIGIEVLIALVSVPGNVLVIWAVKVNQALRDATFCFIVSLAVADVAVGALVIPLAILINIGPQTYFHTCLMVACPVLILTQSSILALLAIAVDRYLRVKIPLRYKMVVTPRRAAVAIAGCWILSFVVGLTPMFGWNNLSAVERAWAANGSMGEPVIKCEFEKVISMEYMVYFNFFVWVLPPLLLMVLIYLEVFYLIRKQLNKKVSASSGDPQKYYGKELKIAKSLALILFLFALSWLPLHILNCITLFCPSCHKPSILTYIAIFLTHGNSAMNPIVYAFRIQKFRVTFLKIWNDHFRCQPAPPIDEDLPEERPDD

Adenosine receptor A3 = biological target: T5, Adenosine receptor A3 (Homo sapiens, UniProt P0DMS8); assay: Displacement of [3H]NECA from human A3 receptor expressed in human HeLa cell membranes incubated for 180 mins by radioligand binding competition assay
T5 sequence (P0DMS8 whole entry): T1 sequence (whole entry)

Adenosine receptor A2a [4] = biological target: T3, Adenosine receptor A2a; assay: Displacement of [3H]ZM241385 from human recombinant A2A receptor expressed in human HeLa cell membranes incubated for 30 mins by radioligand binding competition assay
Adenosine receptor A1 = biological target: T6, Adenosine receptor A1 (Homo sapiens, UniProt P30542); assay: Displacement of [3H]DPCPX from human recombinant A1 receptor expressed in CHOA1 cell membranes incubated for 60 mins by radioligand binding competition assay
T6 sequence (P30542 whole entry): T4 sequence (whole entry)

Homo sapiens [5] = species on record: Homo sapiens; assay: Selectivity index, ratio of Ki for displacement of [3H]ZM241385 from human recombinant A2A receptor expressed in human HeLa cell membranes incubated for 30 mins by radioligand binding competition assay to Ki for displacement of [3H]DPCPX from human recombinant A2B receptor expressed in human HEK293 cell membranes at 1 uM incubated for 30 mins by radioligand binding competition assay
Homo sapiens [6] = species on record: Homo sapiens; assay: Selectivity index, ratio of Ki for displacement of [3H]DPCPX from human recombinant A1 receptor expressed in CHOA1 cell membranes incubated for 60 mins by radioligand binding competition assay to Ki for displacement of [3H]DPCPX from human recombinant A2B receptor expressed in human HEK293 cell membranes at 1 uM incubated for 30 mins by radioligand binding competition assay
Homo sapiens [7] = species on record: Homo sapiens; assay: Selectivity index, ratio of Ki for displacement of [3H]NECA from human A3 receptor expressed in human HeLa cell membranes incubated for 180 mins by radioligand binding competition assay to Ki for displacement of [3H]DPCPX from human recombinant A2B receptor expressed in human HEK293 cell membranes at 1 uM incubated for 30 mins by radioligand binding competition assay
[8] = biological target: T7, Adenosine receptor A2b (Homo sapiens) (UniProt P29275); assay: Displacement of [3H]DPCPX from human recombinant A2B receptor expressed in human HEK293 cell membranes at 1 uM incubated for 30 mins by radioligand binding competition assay relative to control
T7 sequence (whole entry): T2 sequence (P29275 whole entry)

T3 sequence (P29274 whole entry): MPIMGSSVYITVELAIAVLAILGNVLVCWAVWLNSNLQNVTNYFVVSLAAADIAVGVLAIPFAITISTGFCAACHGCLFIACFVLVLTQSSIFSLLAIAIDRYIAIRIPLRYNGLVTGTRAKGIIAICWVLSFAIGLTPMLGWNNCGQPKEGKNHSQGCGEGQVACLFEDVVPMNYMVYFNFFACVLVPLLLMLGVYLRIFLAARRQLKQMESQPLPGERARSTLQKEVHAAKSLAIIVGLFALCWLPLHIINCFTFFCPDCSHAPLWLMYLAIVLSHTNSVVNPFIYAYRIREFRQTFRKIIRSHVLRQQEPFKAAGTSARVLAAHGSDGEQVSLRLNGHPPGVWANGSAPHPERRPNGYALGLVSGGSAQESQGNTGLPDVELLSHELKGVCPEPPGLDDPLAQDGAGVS

inhibition [1] [%]	Ki (Adenosine receptor A2b) [nM]	inhibition (Adenosine receptor A2a [2]) [%]	inhibition [3] [%]	Ki (Adenosine receptor A3) [nM]	Ki (Adenosine receptor A2a [4]) [nM]	Ki (Adenosine receptor A1) [nM]	inhibition [8] [%]	SMILES	Ratio Ki (Homo sapiens [5])	Ratio Ki (Homo sapiens [6])	Ratio Ki (Homo sapiens [7])
29	118	13	16					CCOC(=O)C1=C(C(F)(F)F)Nc2nc3ccccc3n2C1c1ccsc1 (racemic)			
3	52.3	3	2					CC1=C(C(=O)OC(C)C(F)(F)F)C(c2ccoc2)n2c(nc3ccccc32)N1 (racemic)	> 1000	> 1000	> 1000
23	49.2	23	8					CC(C)OC(=O)C1=C(C(F)(F)F)Nc2nc3ccccc3n2C1c1ccoc1 (racemic)	> 1000	> 1000	> 1000
6	37.4	18	9					CCOC(=O)C1=C(C(F)(F)F)Nc2nc3ccccc3n2C1c1ccoc1 (racemic)			
20	731	4	11					CCOC(=O)C1=C(C(F)(F)F)Nc2nc3ccccc3n2C1c1ccco1 (racemic)			
1	42.1	11	14					CC1=C(C(=O)OCC(F)(F)F)C(c2ccoc2)n2c(nc3ccccc32)N1 (racemic)	> 1000	> 1000	> 1000
3	13.7	9	11					CCOC(=O)C1=C(C(F)(F)F)Nc2nc3ccccc3n2[C@@H]1c1ccoc1			
23	27	7	16					CC1=C(C(=O)OCC(F)(F)F)C(c2ccco2)n2c(nc3ccccc32)N1 (racemic)			

The next lines start with the compound.

SMILES	inhibition [1] [%]	Ki (Adenosine receptor A2b) [nM]	inhibition (Adenosine receptor A2a [2]) [%]	inhibition [3] [%]	Ki (Adenosine receptor A3) [nM]	Ki (Adenosine receptor A2a [4]) [nM]	Ki (Adenosine receptor A1) [nM]	inhibition [8] [%]	Ratio Ki (Homo sapiens [5])	Ratio Ki (Homo sapiens [6])	Ratio Ki (Homo sapiens [7])
CC1=C(C(=O)O[C@H](C)C(F)(F)F)C(c2ccco2)n2c(nc3ccccc32)N1 (mixture of isomers)	23	17	11	12							
CC1=C(C(=O)OC(C)C)C(c2ccco2)n2c(nc3ccccc32)N1 (stereo not drawn)	2		28	20	2	28	20				
CCOC(=O)C1=C(C(F)(F)F)NC(=O)NC1c1ccoc1 (racemic)	1	521	55	37							
CC1=C(C(=O)OC(C)C(F)(F)F)C(c2ccco2)n2c(nc3ccccc32)N1 (racemic)	18	29.6	4	3							
CC1=C(C(=O)O[C@@H](C)C(F)(F)F)[C@@H](c2ccco2)n2c(nc3ccccc32)N1	21	8.73	5	22							
CC1=C(C(=O)OC(C)C(F)(F)F)C(c2ccco2)NC(=O)N1 (stereo in doubt; 14i-D1)		61.5									
CC(C)OC(=O)C1=C(C(F)(F)F)NC(=O)NC1c1ccsc1 (racemic)	3	651	9	23							
CC1=C(C(=O)OC(C)C(F)(F)F)C(c2ccco2)NC(=O)N1 (stereo in doubt; 14i-D2)		303									
CC1=C(C(=O)OC(C)C(F)(F)F)C(c2ccsc2)NC(=O)N1 (stereo in doubt; 14l-D1)		643									
CC(C)OC(=O)C1=C(C(F)(F)F)NC(=O)NC1c1ccco1 (racemic)	5	238	24	11							
CCOC(=O)C1=C(C(F)(F)F)NC(=O)NC1c1ccsc1 (racemic)	3	575	46	32							
CC1=C(C(=O)O[C@@H](C)C(F)(F)F)C(c2ccco2)n2c(nc3ccccc32)N1 (mixture of isomers)	7	15.1	1	26							
CC1=C(C(=O)OCC(F)(F)F)[C@@H](c2ccco2)n2c(nc3ccccc32)N1	7	11.2	1	9							
CC1=C(C(=O)OCC(F)(F)F)C(c2ccoc2)NC(=O)N1 (racemic)	1	588	9	13							
CC1=C(C(=O)O[C@H](C)C(F)(F)F)[C@@H](c2ccco2)n2c(nc3ccccc32)N1	14	6.91	1	12							
CC1=C(C(=O)OCC(F)(F)F)C(c2ccco2)NC(=O)N1 (racemic)	1	157	1	10							
CC1=C(C(=O)OC(C)C(F)(F)F)C(c2ccoc2)NC(=O)N1 (stereo in doubt; 14j-D1)		234									
CC1=C(C(=O)OC(C)C(F)(F)F)C(c2cccs2)n2c(nc3ccccc32)N1 (racemic)	4		2	34				27			

Reference: ChEMBL document CHEMBL4414598, “Trifluorinated Pyrimidine-Based A2B Antagonists: Optimization and Evidence of Stereospecific Recognition” (J Med Chem, 2019)
